# Test results from ChEMBL document CHEMBL4219201, “Secoiridoid analogues from the fruits of Ligustrum lucidum and their inhibitory activities against influenza A virus” (Bioorg Med Chem Lett, 2018).
# The source made the active and inactive calls. The calls are words filed in the database; no cut-off is given here.
# Tests used:
# [1] = test system: Influenza A virus; test: Antiviral activity against Influenza A virus (A/WSN/1933(H1N1)) infected in MDCK cells cocultured with human 293T-Gluc cells at 20 uM preincubated with compound for 2 hrs followed by virus infection measured after 24 hrs by luciferase reporter gene assay relative to control; format: functional
# [2] = test system: Influenza A virus; test: Antiviral activity against Influenza A virus (A/WSN/1933(H1N1)) infected in MDCK cells cocultured with human 293T-Gluc cells at 100 uM preincubated with compound for 2 hrs followed by virus infection measured after 24 hrs by luciferase reporter gene assay relative to control; format: functional
# [3] = Cytotoxicity against MDCK cells assessed as reduction in cell viability by CCK8 assay; format: cell-based, Canis lupus familiaris; conditions: dog
# [4] = test system: Influenza A virus; test: Antiviral activity against Influenza A virus (A/WSN/1933(H1N1)) infected in MDCK cells cocultured with human 293T-Gluc cells preincubated with compound for 2 hrs followed by virus infection measured after 24 hrs by luciferase reporter gene assay; format: functional, organism-based
SMILES,inhibition [1],inhibition [2],inhibition at 20 µM [1] [%],inhibition at 100 µM [2] [%],CC50 [3] [µM],IC50 [4] [µM]
C=C[C@H]1[C@H](O[C@@H]2O[C@H](COC(=O)/C=C/c3ccccc3)[C@@H](O)[C@H](O)[C@H]2O)OC=C(C(=O)O)[C@H]1CC(=O)OC,inactive,inactive,–,–,–,–
C[C@H]1OC(=O)CC2C(C(=O)O)=CO[C@@H](O[C@@H]3O[C@H](COC(=O)/C=C/c4ccccc4)[C@@H](O)[C@H](O)[C@H]3O)C21 (stereo partly specified),–,–,35.6,33.3,–,–
COC(=O)C1=CO[C@@H](O[C@@H]2O[C@H](CO)[C@@H](O)[C@H](O)[C@H]2O)[C@@](O)(CC(=O)O)[C@@H]1CC(=O)O,–,–,29.4,76.2,–,–
CCOC(=O)C[C@@H]1C(C(=O)OC)=CO[C@@H](C)[C@@H]1C=O,–,–,55.8,96.8,90.8,18.5
C/C=C1/[C@H]2OC=C(C(=O)OC)[C@H]1CC(=O)OC[C@H](c1ccc(O)c(O)c1)OC[C@H]1O[C@@H](O2)[C@H](O)[C@@H](O)[C@@H]1O,inactive,inactive,–,–,–,–
COC(=O)C1=CO[C@@H](O[C@@H]2O[C@H](CO)[C@@H](O)[C@H](O)[C@H]2O)/C(=C/C(=O)O)[C@@H]1CC(=O)OCCc1ccc(O)c(O)c1,–,–,63.1,83.2,> 100,13.1
COC(=O)C1=CO[C@@H](O[C@@H]2O[C@H](CO)[C@@H](O)[C@H](O)[C@H]2O)/C(=C/C(=O)O)[C@@H]1CC(=O)OCCc1ccc(O)cc1,–,–,60.4,81.7,> 100,12.5
COC(=O)C[C@@H]1C(C(=O)OC)=CO[C@@H](C)[C@@H]1C(OC)OC,inactive,inactive,–,–,–,–
C=C[C@H]1[C@H](O[C@@H]2O[C@H](COC(=O)/C=C/c3ccccc3)[C@@H](O)[C@H](O)[C@H]2O)OC=C(C(=O)O)[C@H]1CC(=O)O,–,–,60.8,73.9,80.5,16.5
C/C=C1/[C@H]2OC=C(C(=O)OC)[C@H]1CC(=O)OC[C@@H](c1ccc(O)c(O)c1)OC[C@H]1O[C@@H](O2)[C@H](O)[C@@H](O)[C@@H]1O,inactive,inactive,–,–,–,–
C/C=C1/[C@H](O[C@@H]2O[C@H](CO[C@@H]3O[C@H](CO)[C@@H](O)[C@H](O)[C@H]3O)[C@@H](O)[C@H](O)[C@H]2O)OC=C(C(=O)OC)[C@H]1CC(=O)OCCc1ccc(O)cc1,–,–,17.8,60.8,–,–
NC(=O)c1ncn([C@@H]2O[C@H](CO)[C@@H](O)[C@H]2O)n1 [RIBAVIRIN],–,–,–,–,–,22.6
